Assay results published in PubChem BioAssay (NCI).
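96-well plates; 48 h exposure; 5 concentrations. Endpoints by linear interpolation between flanking doses. Not reached: highest tested concentration assigned. The concentration for full growth arrest is given as TGI.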

Experiments:
Experiment in all cases: NCI anticancer screen, dose series, 48 h
786-0 renal = test system: 786-0 renal
A498 renal = test system: A498 renal
A549 NSCLC = test system: A549 NSCLC
ACHN renal = test system: ACHN renal
CAKI-1 renal = test system: CAKI-1 renal
CCRF-CEM leukemia = test system: CCRF-CEM leukemia
COLO 205 colon = test system: COLO 205 colon
DMS 273 small cell lung = test system: DMS 273 small cell lung
EKVX NSCLC = test system: EKVX NSCLC
HCC-2998 colon = test system: HCC-2998 colon
HCT-116 colon = test system: HCT-116 colon
HCT-15 colon = test system: HCT-15 colon
HL-60(TB) leukemia = test system: HL-60(TB) leukemia
HOP-18 NSCLC = test system: HOP-18 NSCLC
HOP-62 NSCLC = test system: HOP-62 NSCLC
HOP-92 NSCLC = test system: HOP-92 NSCLC
HT29 colon = test system: HT29 colon
IGROV1 ovarian = test system: IGROV1 ovarian
K-562 leukemia = test system: K-562 leukemia
KM12 colon = test system: KM12 colon
KM20L2 colon = test system: KM20L2 colon
LOX IMVI melanoma = test system: LOX IMVI melanoma
LXFL 529 NSCLC = test system: LXFL 529 NSCLC
M19-MEL melanoma = test system: M19-MEL melanoma
MALME-3M melanoma = test system: MALME-3M melanoma
MOLT-4 leukemia = test system: MOLT-4 leukemia
NCI-H226 lung = test system: NCI-H226 lung
NCI-H23 lung = test system: NCI-H23 lung
NCI-H460 lung = test system: NCI-H460 lung
NCI-H522 lung = test system: NCI-H522 lung
OVCAR-4 ovarian = test system: OVCAR-4 ovarian
OVCAR-5 ovarian = test system: OVCAR-5 ovarian
OVCAR-8 ovarian = test system: OVCAR-8 ovarian
RXF 393 renal = test system: RXF 393 renal
SF-268 CNS = test system: SF-268 CNS
SF-295 CNS = test system: SF-295 CNS
SF-539 CNS = test system: SF-539 CNS
SK-MEL-2 melanoma = test system: SK-MEL-2 melanoma
SK-MEL-28 melanoma = test system: SK-MEL-28 melanoma
SK-OV-3 ovarian = test system: SK-OV-3 ovarian
SN12C renal = test system: SN12C renal
SNB-19 CNS = test system: SNB-19 CNS
SNB-78 CNS = test system: SNB-78 CNS
SR leukemia = test system: SR leukemia
SW-620 colon = test system: SW-620 colon
TK-10 renal = test system: TK-10 renal
U251 CNS = test system: U251 CNS
UACC-257 melanoma = test system: UACC-257 melanoma
XF 498 CNS = test system: XF 498 CNS
DLD-1 colon = test system: DLD-1 colon
DMS 114 small cell lung = test system: DMS 114 small cell lung
M14 melanoma = test system: M14 melanoma
RPMI-8226 leukemia = test system: RPMI-8226 leukemia
RXF-631 renal = test system: RXF-631 renal
SNB-75 CNS = test system: SNB-75 CNS
UACC-62 melanoma = test system: UACC-62 melanoma
UO-31 renal = test system: UO-31 renal
OVCAR-3 ovarian = test system: OVCAR-3 ovarian
SK-MEL-5 melanoma = test system: SK-MEL-5 melanoma

## CC1C2=CC=C(O2)C(C)(C)C2=CC=C(O2)C(C)(C)C2=CC=C(O2)C(C)(C)C2=CC=C1O2
786-0 renal
  TGI: > 100 µM
A498 renal
  TGI: > 100 µM
A549 NSCLC
  TGI: > 100 µM
ACHN renal
  TGI: > 100 µM
CAKI-1 renal
  TGI: > 100 µM
CCRF-CEM leukemia
  TGI: > 100 µM
COLO 205 colon
  TGI: > 100 µM
DMS 273 small cell lung
  TGI: > 100 µM
EKVX NSCLC
  TGI: > 100 µM
HCC-2998 colon
  TGI: > 100 µM
HCT-116 colon
  TGI: > 100 µM
HCT-15 colon
  TGI: > 100 µM
HL-60(TB) leukemia
  TGI: > 100 µM
HOP-18 NSCLC
  TGI: > 100 µM
HOP-62 NSCLC
  TGI: > 100 µM
HOP-92 NSCLC
  TGI: > 100 µM
HT29 colon
  TGI: > 100 µM
IGROV1 ovarian
  TGI: > 100 µM
K-562 leukemia
  TGI: > 100 µM
KM12 colon
  TGI: > 100 µM
KM20L2 colon
  TGI: > 100 µM
LOX IMVI melanoma
  TGI: > 100 µM
LXFL 529 NSCLC
  TGI: > 100 µM
M19-MEL melanoma
  TGI: > 100 µM
MALME-3M melanoma
  TGI: > 100 µM
MOLT-4 leukemia
  TGI: > 100 µM
NCI-H226 lung
  TGI: > 100 µM
NCI-H23 lung
  TGI: > 100 µM
NCI-H460 lung
  TGI: > 100 µM
NCI-H522 lung
  TGI: > 100 µM
OVCAR-4 ovarian
  TGI: > 100 µM
OVCAR-5 ovarian
  TGI: > 100 µM
OVCAR-8 ovarian
  TGI: > 100 µM
RXF 393 renal
  TGI: > 100 µM
SF-268 CNS
  TGI: > 100 µM
SF-295 CNS
  TGI: > 100 µM
SF-539 CNS
  TGI: > 100 µM
SK-MEL-2 melanoma
  TGI: > 100 µM
SK-MEL-28 melanoma
  TGI: > 100 µM
SK-OV-3 ovarian
  TGI: > 100 µM
SN12C renal
  TGI: > 100 µM
SNB-19 CNS
  TGI: > 100 µM
SNB-78 CNS
  TGI: > 100 µM
SR leukemia
  TGI: > 100 µM
SW-620 colon
  TGI: > 100 µM
TK-10 renal
  TGI: > 100 µM
U251 CNS
  TGI: > 100 µM
UACC-257 melanoma
  TGI: > 100 µM
XF 498 CNS
  TGI: > 100 µM

## COc1cc([C@H]2Oc3cc(O)c4c(=O)cc(-c5ccc(O)cc5)oc4c3O[C@@H]2CO)ccc1O
786-0 renal
  TGI: 29.3 µM
A498 renal
  TGI: 35.2 µM
ACHN renal
  TGI: 63.4 µM
CAKI-1 renal
  TGI: 44.9 µM
CCRF-CEM leukemia
  TGI: 44.3 µM
COLO 205 colon
  TGI: 31.7 µM
DLD-1 colon
  TGI: 32.3 µM
DMS 114 small cell lung
  TGI: 40 µM
DMS 273 small cell lung
  TGI: 31.8 µM
HCC-2998 colon
  TGI: 28.5 µM
HCT-116 colon
  TGI: 26.4 µM
HL-60(TB) leukemia
  TGI: 53 µM
HOP-62 NSCLC
  TGI: 33.5 µM
HOP-92 NSCLC
  TGI: 60.7 µM
IGROV1 ovarian
  TGI: 59.3 µM
K-562 leukemia
  TGI: 83.5 µM
LXFL 529 NSCLC
  TGI: 29.2 µM
M14 melanoma
  TGI: 34 µM
M19-MEL melanoma
  TGI: 36.8 µM
MALME-3M melanoma
  TGI: 33.3 µM
MOLT-4 leukemia
  TGI: 53.9 µM
NCI-H226 lung
  TGI: 39 µM
NCI-H23 lung
  TGI: 31.1 µM
NCI-H460 lung
  TGI: 17.8 µM
NCI-H522 lung
  TGI: 18.6 µM
OVCAR-4 ovarian
  TGI: 63.2 µM
RPMI-8226 leukemia
  TGI: 46 µM
RXF-631 renal
  TGI: 24.1 µM
SF-268 CNS
  TGI: 5.79 µM
SK-MEL-2 melanoma
  TGI: 30.7 µM
SK-MEL-28 melanoma
  TGI: 28 µM
SK-OV-3 ovarian
  TGI: 36.6 µM
SNB-75 CNS
  TGI: 18.5 µM
SNB-78 CNS
  TGI: 98.1 µM
SR leukemia
  TGI: 47.8 µM
UACC-62 melanoma
  TGI: 34.2 µM
UO-31 renal
  TGI: 54.2 µM

## CC12CC3CC(C)(C1)CC(N=[N+]=[N-])(C3)C2
786-0 renal
  TGI: > 100 µM
A498 renal
  TGI: > 100 µM
A549 NSCLC
  TGI: > 100 µM
ACHN renal
  TGI: > 100 µM
CAKI-1 renal
  TGI: > 100 µM
CCRF-CEM leukemia
  TGI: > 100 µM
COLO 205 colon
  TGI: > 100 µM
DLD-1 colon
  TGI: > 100 µM
DMS 114 small cell lung
  TGI: > 100 µM
DMS 273 small cell lung
  TGI: > 100 µM
EKVX NSCLC
  TGI: > 100 µM
HCC-2998 colon
  TGI: > 100 µM
HCT-116 colon
  TGI: > 100 µM
HOP-18 NSCLC
  TGI: > 100 µM
HOP-62 NSCLC
  TGI: > 100 µM
HOP-92 NSCLC
  TGI: > 100 µM
HT29 colon
  TGI: > 100 µM
IGROV1 ovarian
  TGI: > 100 µM
K-562 leukemia
  TGI: > 100 µM
KM12 colon
  TGI: > 100 µM
LOX IMVI melanoma
  TGI: > 100 µM
LXFL 529 NSCLC
  TGI: > 100 µM
M14 melanoma
  TGI: > 100 µM
M19-MEL melanoma
  TGI: > 100 µM
MALME-3M melanoma
  TGI: > 100 µM
MOLT-4 leukemia
  TGI: > 100 µM
NCI-H226 lung
  TGI: > 100 µM
NCI-H23 lung
  TGI: > 100 µM
NCI-H460 lung
  TGI: > 100 µM
NCI-H522 lung
  TGI: > 100 µM
OVCAR-3 ovarian
  TGI: > 100 µM
OVCAR-4 ovarian
  TGI: > 100 µM
OVCAR-5 ovarian
  TGI: > 100 µM
OVCAR-8 ovarian
  TGI: > 100 µM
RPMI-8226 leukemia
  TGI: > 100 µM
SF-268 CNS
  TGI: > 100 µM
SF-295 CNS
  TGI: > 100 µM
SF-539 CNS
  TGI: > 100 µM
SK-MEL-2 melanoma
  TGI: > 100 µM
SK-MEL-28 melanoma
  TGI: > 100 µM
SK-MEL-5 melanoma
  TGI: > 100 µM
SK-OV-3 ovarian
  TGI: > 100 µM
SN12C renal
  TGI: > 100 µM
SNB-19 CNS
  TGI: > 100 µM
SNB-75 CNS
  TGI: > 100 µM
SNB-78 CNS
  TGI: > 100 µM
SR leukemia
  TGI: > 100 µM
SW-620 colon
  TGI: > 100 µM
TK-10 renal
  TGI: > 100 µM
U251 CNS
  TGI: > 100 µM
UACC-257 melanoma
  TGI: > 100 µM
UACC-62 melanoma
  TGI: > 100 µM
UO-31 renal
  TGI: > 100 µM
XF 498 CNS
  TGI: > 100 µM

## CCN(CC)c1ccc2c(c1)N=C1N=CC=CN1C2(c1ccc(N(C)C)cc1)c1ccc(N(C)C)cc1
786-0 renal
  TGI: 24.1 µM
A498 renal
  TGI: 33.3 µM
A549 NSCLC
  TGI: 28 µM
ACHN renal
  TGI: 16.1 µM
CAKI-1 renal
  TGI: 25.2 µM
CCRF-CEM leukemia
  TGI: 23.5 µM
COLO 205 colon
  TGI: 6.53 µM
DLD-1 colon
  TGI: 17.9 µM
DMS 273 small cell lung
  TGI: > 100 µM
EKVX NSCLC
  TGI: 23.8 µM
HCC-2998 colon
  TGI: 13.2 µM
HCT-116 colon
  TGI: 11.8 µM
HCT-15 colon
  TGI: 28.1 µM
HL-60(TB) leukemia
  TGI: 3.3 µM
HOP-18 NSCLC
  TGI: 12 µM
HOP-62 NSCLC
  TGI: 24.3 µM
HOP-92 NSCLC
  TGI: 8.6 µM
HT29 colon
  TGI: 10.6 µM
IGROV1 ovarian
  TGI: 26.9 µM
K-562 leukemia
  TGI: 5.96 µM
KM12 colon
  TGI: 15.6 µM
KM20L2 colon
  TGI: 10.2 µM
LOX IMVI melanoma
  TGI: 18.4 µM
LXFL 529 NSCLC
  TGI: 12.3 µM
M14 melanoma
  TGI: 10.5 µM
M19-MEL melanoma
  TGI: 19.3 µM
MALME-3M melanoma
  TGI: 27.4 µM
MOLT-4 leukemia
  TGI: 6.22 µM
NCI-H226 lung
  TGI: 27.2 µM
NCI-H23 lung
  TGI: 20.2 µM
NCI-H460 lung
  TGI: 22.2 µM
NCI-H522 lung
  TGI: 5.12 µM
OVCAR-3 ovarian
  TGI: 6.54 µM
OVCAR-5 ovarian
  TGI: 27.4 µM
OVCAR-8 ovarian
  TGI: 17.5 µM
RPMI-8226 leukemia
  TGI: 8.1 µM
RXF 393 renal
  TGI: 23.2 µM
RXF-631 renal
  TGI: 19.4 µM
SF-268 CNS
  TGI: 27.3 µM
SF-295 CNS
  TGI: 15.6 µM
SF-539 CNS
  TGI: 28.6 µM
SK-MEL-2 melanoma
  TGI: 31.1 µM
SK-MEL-28 melanoma
  TGI: 26 µM
SK-MEL-5 melanoma
  TGI: 26.7 µM
SK-OV-3 ovarian
  TGI: 19.1 µM
SN12C renal
  TGI: 19.3 µM
SNB-19 CNS
  TGI: 24 µM
SNB-75 CNS
  TGI: 24.4 µM
SNB-78 CNS
  TGI: 39.5 µM
SR leukemia
  TGI: 12.9 µM
TK-10 renal
  TGI: 28.6 µM
U251 CNS
  TGI: 16 µM
UACC-257 melanoma
  TGI: 19.5 µM
UACC-62 melanoma
  TGI: 24.1 µM
UO-31 renal
  TGI: 22 µM
XF 498 CNS
  TGI: 12.6 µM
